Where two headings read alike, the source gives them in different places. Bounds are passed on as bounds.

For one test, the target named is T1, human recombinant HDAC1 (Homo sapiens, UniProt Q13547).
T1 construct: purchased Enzo Life Science, Inc. BML-SE456
Nature of the test: HDAC1 enzyme activity inhibition (HDAC Fluorimetric Drug Discovery Kit). As to conditions: read-out: HDAC1. It counts as biochemical. In outline: (§1)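 Fluorescence from a Fluor de Lys developer step (30 minutes) reports residual deacetylation after a 60-minute, 30° C reaction of […] enzyme with 10 μM substrate and 5-fold compound dilutions.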

In test [1] the test system is hippocampal neurons from a Sprague-Dawley (SD) rat fetus. Nature of the test: Effect of HDAC6-specific inhibitor on axonal transport of mitochondria in amyloid-beta treated neurons. It counts as cell-based. As to conditions: transport velocity of mitochondria in neuronal axon after normalization; vehicle = 100%, amyloid beta treatment group = 0%; compound treatment for three hours. As to the method: On the 17th to 18th days (E17-18) of insemination, the hippocampal neurons from a Sprague-Dawley (SD) rat fetus were cultured in a culture container for imaging, which had been coated with extracellular matrix, and were treated with amyloid-beta protein fragments at a concentration of […]. In 24 hours later, the neurons were treated with the compound on the 8th day of in vitro culture. In three hours later, the resulting neurons were treated with MitoTracker Red CMXRos (Life Technologies, NY, USA) for last five minutes to stain mitochondria. An image on the axonal transport of stained neuron mitochondria was taken with a confocal microscope (Leica SP8; Leica microsystems, UK) at an interval of one second for one minute to measure a transport velocity of each mitochondria per second with an IMARIS analysis program (BITPLANE, Zurich, Switzerland).
In result, after setting a section, in which the group treated with amyloid-beta had shown a significant decrease in the transport velocity of mitochondria compared to a vehicle, it was confirmed for 1,3,4-oxadiazole triazol derivative compounds of the present invention, stereoisomers thereof or pharmaceutically acceptable salts thereof that the vehicles is represented as 100%, the amyloid beta treatment group is represented as 0%, a velocity distribution of the compound after normalization is represented as *, 0%˜50%; **, 50%˜100%; ***, >100%.

The target of the next test is T2, human recombinant HDAC6 (Homo sapiens, UniProt Q9UBN7).
T2 construct: purchased Calbiochem Inc. 382180
T2 sequence (Q9UBN7 1-1215): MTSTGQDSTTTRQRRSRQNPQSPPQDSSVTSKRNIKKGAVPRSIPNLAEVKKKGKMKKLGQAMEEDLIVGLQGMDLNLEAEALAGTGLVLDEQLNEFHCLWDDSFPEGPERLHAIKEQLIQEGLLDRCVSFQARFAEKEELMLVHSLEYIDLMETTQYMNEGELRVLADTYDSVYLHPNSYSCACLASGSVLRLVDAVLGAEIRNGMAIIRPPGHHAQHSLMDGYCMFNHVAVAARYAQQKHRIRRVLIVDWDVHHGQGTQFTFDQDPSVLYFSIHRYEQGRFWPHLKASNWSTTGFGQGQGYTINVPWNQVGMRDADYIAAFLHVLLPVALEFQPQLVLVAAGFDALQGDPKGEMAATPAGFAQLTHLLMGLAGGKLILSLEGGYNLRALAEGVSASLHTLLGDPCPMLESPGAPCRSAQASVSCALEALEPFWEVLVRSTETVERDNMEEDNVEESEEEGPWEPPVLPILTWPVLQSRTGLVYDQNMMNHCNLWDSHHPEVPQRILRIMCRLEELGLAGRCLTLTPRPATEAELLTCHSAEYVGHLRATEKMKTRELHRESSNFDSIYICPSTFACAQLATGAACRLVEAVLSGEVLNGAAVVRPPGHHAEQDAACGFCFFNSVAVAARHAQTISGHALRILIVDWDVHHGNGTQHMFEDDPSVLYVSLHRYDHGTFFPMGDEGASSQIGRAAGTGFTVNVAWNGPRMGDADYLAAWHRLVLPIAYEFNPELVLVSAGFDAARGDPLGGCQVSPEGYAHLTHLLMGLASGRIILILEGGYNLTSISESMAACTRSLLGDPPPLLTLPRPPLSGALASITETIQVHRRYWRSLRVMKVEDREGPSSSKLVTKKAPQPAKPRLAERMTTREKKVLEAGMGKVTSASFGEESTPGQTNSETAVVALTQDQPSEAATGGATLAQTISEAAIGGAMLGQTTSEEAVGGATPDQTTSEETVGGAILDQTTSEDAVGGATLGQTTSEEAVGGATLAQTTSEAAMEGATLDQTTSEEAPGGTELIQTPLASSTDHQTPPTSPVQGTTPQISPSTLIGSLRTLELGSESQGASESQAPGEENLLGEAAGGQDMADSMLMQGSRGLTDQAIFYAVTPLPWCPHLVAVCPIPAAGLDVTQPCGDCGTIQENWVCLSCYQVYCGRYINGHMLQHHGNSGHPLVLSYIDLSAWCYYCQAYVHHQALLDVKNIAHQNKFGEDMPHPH
As to the kind of experiment: HDAC6 enzyme activity inhibition (HDAC Fluorimetric Drug Discovery Kit). It counts as biochemical. In outline: as §1

[2] abbreviates: human recombinant HDAC1, Fluor de Lys substrate, 30° C. 60 minutes.
Where [3] appears, read: human recombinant HDAC6, same protocol as HDAC1.
[4] abbreviates: human recombinant HDAC1, IC50 calculated with GraphPad Prism.
Setting [5] is: human recombinant HDAC6, IC50 calculated with GraphPad Prism.

T1 sequence (Q13547 whole entry): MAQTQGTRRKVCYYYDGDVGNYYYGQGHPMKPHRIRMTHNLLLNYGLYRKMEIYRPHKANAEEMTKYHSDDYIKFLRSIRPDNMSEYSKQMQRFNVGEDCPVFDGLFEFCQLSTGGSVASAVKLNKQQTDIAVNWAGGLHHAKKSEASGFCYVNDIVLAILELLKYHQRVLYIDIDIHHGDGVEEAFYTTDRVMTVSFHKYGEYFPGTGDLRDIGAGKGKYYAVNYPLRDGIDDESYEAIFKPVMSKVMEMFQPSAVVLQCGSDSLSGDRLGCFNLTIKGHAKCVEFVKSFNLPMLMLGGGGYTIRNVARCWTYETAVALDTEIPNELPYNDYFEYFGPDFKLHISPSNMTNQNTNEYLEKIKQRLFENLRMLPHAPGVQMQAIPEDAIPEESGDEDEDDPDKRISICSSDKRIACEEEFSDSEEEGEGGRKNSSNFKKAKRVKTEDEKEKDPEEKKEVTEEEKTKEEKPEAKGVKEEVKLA

For the compound `Fc1cc(-c2nnc(C(F)F)o2)cnc1Cn1cc(-c2ccccn2)nn1` [Compound 17983, 2-(difluoromethyl)-5-(5-fluoro-6-((4-(pyridin-2-yl)-1H-1,2,3-triazol-1-yl)methyl)pyridin-3-yl)-1,3,4-oxadiazole], the figures for the IC50 on human recombinant HDAC1 (setting [2]) and on human recombinant HDAC6 (setting [3]) were over 50 µM and 0.0789 µM, respectively. In addition, the “Velocity distribution (%)” value in test [1] is “*** (***, >100%)”. For the same compound, the “HDAC6 selectivity (fold)” value at human recombinant HDAC6 (HDAC6 over HDAC1) is listed as 633 fold.

As for `Fc1cc(-c2nnc(C(F)F)o2)cnc1Cn1cc(-c2cccc3[nH]ncc23)nn1` [Compound 19058, 2-(6-((4-(1H-indazol-4-yl)-1H-1,2,3-triazol-1-yl)methyl)-5-fluoropyridin-3-yl)-5-(difluoromethyl)-1,3,4-oxadiazole], the IC50 at human recombinant HDAC1 (setting [2]) was over 50 µM; at human recombinant HDAC6 (setting [3]) it was 0.0217 µM. Also, the “Velocity distribution (%)” value in test [1] is “*** (***, >100%)”. In addition, the “HDAC6 selectivity (fold)” value at human recombinant HDAC6 (HDAC6 over HDAC1) worked out at 2304 fold.

For `CC(C)N1CCc2ccc(-c3cn(Cc4ccc(-c5nnc(C(F)F)o5)cn4)nn3)cc2C1` [Compound 4210, 2-(difluoromethyl)-5-(6-((4-(2-isopropyl-1,2,3,4-tetrahydroisoquinolin-7-yl)-1H-1,2,3-triazol-1-yl)methyl)pyridin-3-yl)-1,3,4-oxadiazole], the IC50 on human recombinant HDAC1 (setting [4]) is over 50 µM; on human recombinant HDAC6 (setting [5]), 0.0519 µM. Besides, the “Velocity distribution (%)” value in test [1] is listed as “* (*, 0%˜50%)”. Also, the “HDAC6 selectivity (fold)” value at human recombinant HDAC6 (HDAC1 IC50 / HDAC6 IC50) amounted to 963 fold.

With `FC(F)c1nnc(-c2ccc(Cn3cc(-c4ccc5cc[nH]c5c4)cn3)nc2)o1` [Compound 4208], the IC50 on human recombinant HDAC1 (setting [4]) is over 50 µM; on human recombinant HDAC6 (setting [5]), 0.0338 µM. In addition, in test [1], the “Velocity distribution (%)” value was “** (**, 50%˜100%)”. The “HDAC6 selectivity (fold)” value at human recombinant HDAC6 (HDAC1 IC50 / HDAC6 IC50) turned out to be 1479 fold.

Consider `Fc1cc(-c2nnc(C(F)F)o2)ccc1Cn1cc(-c2cccc(N3CCN(C4COC4)CC3)c2)nn1` [Compound 4375, 2-(difluoromethyl)-5-(3-fluoro-4-((4-(3-(4-(oxetan-3-yl)piperazin-1-yl)phenyl)-1H-1,2,3-triazol-1-yl)methyl)phenyl)-1,3,4-oxadiazole], for which the IC50 on human recombinant HDAC1 (setting [4]) is over 50 µM; at human recombinant HDAC6 (setting [5]), 0.035 µM. Moreover, the “Velocity distribution (%)” value in test [1] is on record as “* (*, 0%˜50%)”. Besides, the “HDAC6 selectivity (fold)” value on human recombinant HDAC6 (HDAC1 IC50 / HDAC6 IC50) was 1428 fold.

Turning to `FC(F)c1nnc(-c2ccc(Cn3cc(-c4cccc(NC5CCCCC5)c4)nn3)nc2)o1` [Compound 3828, N-cyclohexyl-3-(1-((5-(5-(difluoromethyl)-1,3,4-oxadiazol-2-yl)pyridin-2-yl)methyl)-1H-1,2,3-triazol-4-yl)aniline], the IC50 at human recombinant HDAC1 (setting [4]) was over 50 µM; on human recombinant HDAC6 (setting [5]), 0.0418 µM. In addition, in test [1], the “Velocity distribution (%)” value is on record as “* (*, 0%˜50%)”. In addition, at human recombinant HDAC6 (HDAC1 IC50 / HDAC6 IC50), the “HDAC6 selectivity (fold)” value is given as 1196 fold.

In the case of `FC(F)c1nnc(-c2ccc(Cn3cc(-c4ccc5c(CN6CCCC6)c[nH]c5c4)nn3)cc2)o1` [Compound 4108, 2-(difluoromethyl)-5-(4-((4-(3-(pyrrolidin-1-ylmethyl)-1H-indol-6-yl)-1H-1,2,3-triazol-1-yl)methyl)phenyl)-1,3,4-oxadiazole], the IC50 was over 50 µM at human recombinant HDAC1 (setting [4]) and 0.0085 µM on human recombinant HDAC6 (setting [5]). Moreover, the “Velocity distribution (%)” value in test [1] is on record as “*** (***, >100%)”. The “HDAC6 selectivity (fold)” value at human recombinant HDAC6 (HDAC1 IC50 / HDAC6 IC50) is listed as 5882 fold.

With `FC(F)c1nnc(-c2ccc(Cn3cc(-c4cccs4)nn3)nc2)o1` [Compound 3902, 2-(difluoromethyl)-5-(6-((4-(thiophen-2-yl)-1H-1,2,3-triazol-1-yl)methyl)pyridin-3-yl)-1,3,4-oxadiazole], the figures for the IC50 on human recombinant HDAC1 (setting [4]) and at human recombinant HDAC6 (setting [5]) were over 50 µM and 0.0207 µM, respectively. Also, in test [1], the “Velocity distribution (%)” value is on record as “*** (***, >100%)”. Besides, the “HDAC6 selectivity (fold)” value at human recombinant HDAC6 (HDAC1 IC50 / HDAC6 IC50) is recorded as 2415 fold.

As to `Fc1cc(-c2cn(Cc3ccc(-c4nnc(C(F)F)o4)cn3)nn2)ccn1` [Compound 4185, 2-(difluoromethyl)-5-(6-((4-(2-fluoropyridin-4-yl)-1H-1,2,3-triazol-1-yl)methyl)pyridin-3-yl)-1,3,4-oxadiazole], the IC50 at human recombinant HDAC1 (setting [4]) was over 50 µM; on human recombinant HDAC6 (setting [5]), 0.0685 µM. The “Velocity distribution (%)” value in test [1] is reported as “*** (***, >100%)”. Moreover, the “HDAC6 selectivity (fold)” value on human recombinant HDAC6 (HDAC1 IC50 / HDAC6 IC50) is recorded as 729 fold.

Values taken from US20230257372A1 (CHONG KUN DANG PHARMACEUTICAL CORP., priority 2020, published 2023).
